Reference: patent US5604256A, “Octahydronaphthalene oxime derivatives for cholesterol biosynthesis inhibition” (Sankyo Company, Limited, priority 1992, dated 1997)
pIC50: −log10 of the molar value. Counter-ions that a name gives are not always drawn.

target: T1, HMG-CoA reductase (Rattus norvegicus, UniProt P51639); test: biochemical; conditions: Table 3
T1 sequence (P51639 1-887): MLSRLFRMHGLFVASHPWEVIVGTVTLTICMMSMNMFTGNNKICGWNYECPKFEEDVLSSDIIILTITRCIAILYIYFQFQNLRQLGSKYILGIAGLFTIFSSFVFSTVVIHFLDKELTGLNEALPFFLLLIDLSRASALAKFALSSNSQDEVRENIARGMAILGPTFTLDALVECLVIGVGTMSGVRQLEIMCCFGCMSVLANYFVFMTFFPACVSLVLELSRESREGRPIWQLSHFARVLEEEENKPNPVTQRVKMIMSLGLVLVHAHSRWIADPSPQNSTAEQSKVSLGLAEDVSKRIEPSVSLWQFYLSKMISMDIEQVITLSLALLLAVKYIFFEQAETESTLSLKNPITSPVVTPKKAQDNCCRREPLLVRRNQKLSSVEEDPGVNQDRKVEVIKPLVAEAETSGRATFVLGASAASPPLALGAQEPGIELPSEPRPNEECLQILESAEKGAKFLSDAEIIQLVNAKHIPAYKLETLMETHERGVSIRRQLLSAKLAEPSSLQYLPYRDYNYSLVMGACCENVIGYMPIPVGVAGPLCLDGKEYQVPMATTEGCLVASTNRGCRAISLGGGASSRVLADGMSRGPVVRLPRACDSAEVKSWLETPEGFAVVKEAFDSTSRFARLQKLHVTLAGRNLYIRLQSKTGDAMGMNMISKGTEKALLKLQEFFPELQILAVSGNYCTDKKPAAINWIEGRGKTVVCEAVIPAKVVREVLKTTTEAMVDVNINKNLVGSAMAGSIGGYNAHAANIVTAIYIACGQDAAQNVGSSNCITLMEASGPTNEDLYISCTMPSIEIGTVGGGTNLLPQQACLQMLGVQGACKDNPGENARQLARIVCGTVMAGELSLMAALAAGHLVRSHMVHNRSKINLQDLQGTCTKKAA
Source text: The determination of the inhibitory activity of the compounds was made using the method of Kuroda et al ["Biochimica et Biophysica Acta" Vol. 486, pp. 70-81 (1977)] which is a modification of the known method of D. J. Shapiro et al ["Analytical Biochemistry" Vol. 31, pp. 383-390 (1969)] with some improvements.

pIC50 | Compound
7.73 | CCC(C)C(=O)OC1CCC(=NOCc2ccccc2)C2=CC(=O)C(C)C(CCC(O)CC(O)CC(=O)O)C21 (stereo not drawn) [Na salt of Compound of Preparation 1]
7.79 | CCC(C)C(=O)OC1CCC(=NOCc2ccccc2)C2=CC(=O)C(C)C(CCC(=O)CC(O)CC(=O)O)C21 (stereo not drawn)

The remaining lines, values behind:

Compound | pIC50
CCC(C)C(=O)OC1CCC(=NOCc2cnoc2)C2=CC(=O)C(C)C(CCC(O)CC(O)CC(=O)O)C21 (stereo not drawn) [Na salt of Compound of Preparation 9] | 7.64
CCC(C)C(=O)OC1CCC(=NOCc2c(C)noc2C)C2=CC(=O)C(C)C(CCC(=O)CC(O)CC(=O)O)C21 (stereo not drawn) | 7.79
CCC(C)C(=O)OC1CCC(=NOCc2c(C)noc2C)C2=CC(=O)C(C)C(CCC(O)CC(O)CC(=O)O)C21 (stereo not drawn) [Na salt of Compound of Preparation 11] | 7.76
CCC(C)C(=O)OC1CCC(=NOCc2cnoc2)C2=CC(=O)C(C)C(CCC(=O)CC(O)CC(=O)O)C21 (stereo not drawn) | 7.69
